How the values were obtained:
[1] = target: T1, hCB2R (Homo sapiens, UniProt P34972); experiment: cAMP assay on hCB2R clone 3D8.3 (transfected CHO-K1 cells); assay type: cell-based; details: for IC50: cAMP, hCNR2 CHO-K1 3D8.3 clone, read-out: Assay 1 IC50
T1 construct: unnamed tag of the plasmid; expressed in transfected cells
Procedure: (§1) Compounds were evaluated for their CB2R agonist potency in the following assays:
Assay 1—cAMP Assay on hCB2R Clone 3D8.3:
Chinese hamster ovary cells (CHO)-K1 were transfected with hCB2R plasmid using Genejuice (Merck). After 48 h the cells were transferred into flasks in the presence of the antibiotic G418 and expanded (with continuous replenishment of the antibiotic). Two single-cell cloning rounds were then performed, followed by verification of the presence of the tag of the plasmid and confirming the receptor was functional in cAMP studies. For the screening of compounds: Briefly, hCNR2 CHO-K1 (3D8.3 clone) cells were plated in Optimem+1% FCS (30000 cells, 100 ul per well) in half-area 96-well plates (Corning 3885) and placed in an incubator 37° C. 5% CO2 overnight. Next day, the medium was aspirated and replaced with ‘antibody solution’ (22.5 ul) (provided concentrated, diluted 1 in 3 with ‘assay buffer’ provided). The freshly made compounds (at a ×4 final concentration) or solvent alone (1.2% DMSO) were added to the wells and incubated for 30 minutes in a 37° C. incubator 5% CO2. A mixture of: Lysis solution (38%), substrates (Emerald-II™ (10%) and Galacton-Star® (2%)) and enzyme donor-labeled cAMP (50%) was added to the wells and incubated in the dark for one hour at room temperature. 30 μl of detection reagent (enzyme acceptor, provided) was then added to the wells and incubated in the dark for 3 hours at room temperature. The luminescence was then read with a Perkin-Elmer luminometer.

[2] = target: T2, hCNR2 (CB2R) (Homo sapiens, UniProt P34972); experiment: DiscoveRx cAMP Hunter Express GPCR assay (hCNR2 CHO-K1 cells); assay type: cell-based; details: cAMP Hunter eXpress, hCNR2 CHO-K1 cells; read-out: Assay 2 IC50
T2 construct: host or cells: CHO-K1 (purchased recombinant cell line)
T2 sequence (P34972 whole entry): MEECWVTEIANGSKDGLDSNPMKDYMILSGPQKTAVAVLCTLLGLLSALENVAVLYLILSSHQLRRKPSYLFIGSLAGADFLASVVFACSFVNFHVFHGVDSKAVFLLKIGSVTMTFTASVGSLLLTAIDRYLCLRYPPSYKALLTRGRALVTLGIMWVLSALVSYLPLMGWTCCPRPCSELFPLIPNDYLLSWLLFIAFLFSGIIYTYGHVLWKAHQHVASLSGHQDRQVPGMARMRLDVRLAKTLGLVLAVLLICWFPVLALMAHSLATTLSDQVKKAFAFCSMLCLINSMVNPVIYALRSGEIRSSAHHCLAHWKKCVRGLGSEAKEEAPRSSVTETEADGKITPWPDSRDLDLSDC
Procedure: as §1
Assay 2—DiscoveRx cAMP Hunter Express GPCR Assay
The cAMP Hunter eXpress GPCR assay kit and cells used are from DiscoveRx Corporation (95-0040E2) using the manufacturer's protocol without the optional IBMX step. […] Briefly, hCNR2 CHO-K1 cells were plated in the provided medium (50 ul per well) in half-area 96-well plates (Corning 3885) and placed in an incubator 37° C. 5% CO2 overnight. Next day, the medium was aspirated and replaced with ‘antibody solution’ (22.5 ul) (provided concentrated, diluted 1 in 3 with ‘assay buffer’ provided). The freshly made compounds (at a ×4 final concentration) or solvent alone (1.2% DMSO) were added to the wells and incubated for 30 minutes in a 37° C. incubator 5% CO2. A mixture of lysis solution and two substrates (provided with the DiscoveRx kit) was added to the wells and incubated in the dark for one hour at room temperature. A detection reagent (provided) was then added to the wells and incubated in the dark for 3 hours at room temperature. The luminescence was then read with a Perkin-Elmer luminometer.

T1 sequence (P34972 whole entry): as above

Row | SMILES | IC50 [1] [nM] | IC50 [2] [nM] | Assay 1 activity at 3 μM [1] [% activity at 3 μM]
1 | N#Cc1ccccc1CSc1nnc2c3ccccc3n(Cc3ccc(F)cc3)c2n1 [Example 37, 2′-(((5-(4″-Fluorobenzyl)-5H-[1,2,4]triazino[5,6-b]indol-3-yl)thio)methyl)benzonitrile] | 45 | – | –
2 | CCCCSc1nnc2c(n1)[nH]c1ccccc12 [Example 28, 3-(butylthio)-5H-[1,2,4]triazino[5,6-b]indole] | 95 | 95 | –
3 | CC(=O)n1c2ccccc2c2nnc(SCc3ccccc3C#N)nc21 [Example 29, 2′(((5-Acetyl-5H-[1,2,4]triazino[5,6-b]indol-3-yl)thio)methyl)benzonitrile] | > 3000 | – | –
4 | N#Cc1ccccc1CSc1nnc2c3ccccc3n(C(=O)C3CCCC3)c2n1 [Example 22, 2′-(((5-(Cyclopentanecarbonyl)-5H-[1,2,4]triazino[5,6-b]indol-3-yl)thio)methyl)benzonitrile] | 14 | 49 | –
5 | COC(=O)CCCC(=O)n1c2ccccc2c2nnc(SCc3ccccc3C#N)nc21 [Example 27, methyl 5″-(3-((2′-cyanobenzyl)thio)-5H-[1,2,4]triazino[5,6-b]indol-5-yl)-5″-oxopentanoate] | 45 | 42 | –
6 | COc1ccc(C(=O)n2c3ccccc3c3nnc(SCc4ccccc4C#N)nc32)cc1OC [Example 17] | – | – | ~60
7 | N#Cc1ccccc1CSc1nnc2c3ccccc3n(S(=O)(=O)c3ccccc3)c2n1 [Example 34, 2′-(((5-(Phenylsulfonyl)-5H-[1,2,4]triazino[5,6-b]indol-3-yl)thio)methyl)benzonitrile] | 76 | – | –
8 | N#Cc1ccccc1CSc1nnc2c3ccccc3n(C(=O)C3CCCCC3)c2n1 [Example 18, 2′-(((5-(Cyclohexanecarbonyl)-5H-[1,2,4]triazino[5,6-b]indol-3-yl)thio)methyl)benzonitrile] | 12 | 32 | –
9 | N#Cc1ccccc1CSc1nnc2c3ccccc3n(Cc3ccccc3[N+](=O)[O-])c2n1 [Example 10, 2′-(((5-(2″-Nitrobenzyl)-5H-[1,2,4]triazino[5,6-b]indol-3-yl)thio)methyl)benzonitrile] | 355 | 53 | –
10 | N#Cc1ccccc1CSc1nnc2c3ccccc3n(C(=O)c3ccccc3)c2n1 [Example 25] | 38 | 113 | –
11 | Cc1ccccc1CSc1nnc2c(n1)[nH]c1ccccc12 [Example 15, 3-((2′-Methylbenzyl)thio)-5H-[1,2,4]triazino[5,6-b]indole] | – | 215 | –
12 | N#Cc1ccccc1CSc1nnc2c(n1)[nH]c1cccc(Br)c12 [Example 8, 2′-(((9-Bromo-5H-[1,2,4]triazino[5,6-b]indol-3-yl)thio)methyl)benzonitrile] | 228 | 39 | –
13 | C[C@@H]1C[C@H]1C(=O)n1c2ccccc2c2nnc(SCc3ccccc3C#N)nc21 (relative stereo) [Example 40, 2′-((5-(2″-Methylcyclopropanecarbonyl)-5H-[1,2,4]triazino[5,6-b]indol-3-ylthio)methyl)benzonitrile] | 628 | – | –
14 | c1ccc(-c2nn[nH]n2)c(CSc2nnc3c(n2)[nH]c2ccccc23)c1 [Example 47] | 11 | – | –
15 | O=[N+]([O-])c1ccccc1CSc1nnc2c3ccccc3n(Cc3ccccc3)c2n1 [Example 14, 5-Benzyl-3-((2′-nitrobenzyl)thio)-5H-[1,2,4]triazino[5,6-b]indole] | – | – | ~40
16 | N#Cc1ccccc1CSc1nnc2c3ccccc3n(C(=O)c3ccno3)c2n1 [Example 24, 2′-(((5-(Isoxazole-5″-carbonyl)-5H-[1,2,4]triazino[5,6-b]indol-3-yl)thio)methyl)benzonitrile] | 14 | 19 | –
17 | CCCCn1c2ccccc2c2nnc(SCc3ccccc3C#N)nc21 [Example 31, 2′-(((5-Butyl-5H-[1,2,4]triazino[5,6-b]indol-3-yl)thio)methyl)benzonitrile] | 106 | – | –
18 | N#Cc1ccccc1CSc1nnc2c3c(Br)cccc3n(C(=O)C3CC3)c2n1 [Example 44, 2′-(((9-Bromo-5-(cyclopropanecarbonyl)-5H-[1,2,4]triazino[5,6-b]indol-3-yl)thio)methyl)benzonitrile] | 16 | – | –

Row | SMILES | IC50 [1] [nM] | IC50 [2] [nM] | Assay 1 activity at 3 μM [1] [% activity at 3 μM]
19 | N#Cc1ccccc1CSc1nnc2c3ccccc3n(CC3CC3)c2n1 [Example 41, 2′-((5-(Cyclopropylmethyl)-5H-[1,2,4]triazino[5,6-b]indol-3-ylthio)methyl)benzonitrile] | 144 | – | –
20 | N#Cc1ccccc1CSc1nnc2c3ccccc3n(Cc3ccc(Cl)cc3)c2n1 [Example 5, 2′(((5-(4″-Chlorobenzyl)-5H-[1,2,4]triazino[5,6-b]indol-3-yl)thio)methyl)benzonitrile] | ~600 | – | –
21 | COc1ccc(-c2cccc3[nH]c4nc(SCc5ccccc5C#N)nnc4c23)cc1 [Example 49, 2″-(((9-(4′-Methoxyphenyl)-5H-[1,2,4]triazino[5,6-b]indol-3-yl)thio)methyl)benzonitrile] | 2620 | – | –
22 | N#Cc1ccccc1CSc1nnc2c3ccccc3n(C(=O)[C@@H]3C[C@H]3c3ccccc3)c2n1 (stereo in doubt) [Example 38, 2′-((5-(2″-Phenylcyclopropanecarbonyl)-5H-[1,2,4]triazino[5,6-b]indol-3-ylthio)methyl)benzonitrile] | 72 | – | –
23 | N#Cc1ccccc1CSc1nnc2c3c(Br)cccc3n(CC3CC3)c2n1 [Example 43, 2′-(((9-Bromo-5-(cyclopropylmethyl)-5H-[1,2,4]triazino[5,6-b]indol-3-yl)thio)methyl)benzonitrile] | 20 | – | –
24 | O=[N+]([O-])c1ccc(CSc2nnc3c(n2)[nH]c2ccccc23)c([N+](=O)[O-])c1 [Example 11, 3-((2′,4′-Dinitrobenzyl)thio)-5H-[1,2,4]triazino[5,6-b]indole] | 3900 | 576 | –
25 | N#Cc1ccccc1CSc1nnc2c3ccccc3n(C(=O)c3ccc(F)cc3)c2n1 [Example 20, 2′-(((5-(4″-Fluorobenzoyl)-5H-[1,2,4]triazino[5,6-b]indol-3-yl)thio)methyl)benzonitrile] | 32 | 57 | –
26 | N#Cc1ccccc1CSc1nnc2c(n1)[nH]c1cccc(-c3ccsc3)c12 [Example 50, 2″-(((9-(Thiophen-3′-yl)-5H-[1,2,4]triazino[5,6-b]indol-3-yl)thio)methyl)benzonitrile] | 1760 | – | –
27 | CCn1c2ccccc2c2nnc(SCc3ccccc3C#N)nc21 [Example 30, 2′-(((5-Ethyl-5H-[1,2,4]triazino[5,6-b]indol-3-yl)thio)methyl)benzonitrile] | 674 | – | –
28 | N#Cc1ccccc1CSc1nnc2c(n1)[nH]c1cccc(C3CC3)c12 [Example 51, 2″-(((9-Cyclopropyl-5H-[1,2,4]triazino[5,6-b]indol-3-yl)thio)methyl)benzonitrile] | 231 | – | –
29 | N#Cc1ccccc1C[S+]([O-])c1nnc2c(n1)[nH]c1ccccc12 (stereo not drawn) [Example 32, 2′-(((5H-[1,2,4]Triazino[5,6-b]indol-3-yl)sulfinyl)methyl)benzonitrile] | 3550 | – | –
30 | N#Cc1ccccc1CSc1nnc2c3ccccc3n(CC3CCCCC3)c2n1 [Example 36, 2′-(((5-(Cyclohexylmethyl)-5H-[1,2,4]triazino[5,6-b]indol-3-yl)thio)methyl)benzonitrile] | 270 | – | –
31 | N#Cc1ccccc1CSc1nnc2c3ccccc3n(C(=O)C3CC3)c2n1 [Example 42, 2′-(((5-(Cyclopropanecarbonyl)-5H-[1,2,4]triazino[5,6-b]indole-3-yl)thio)methyl)benzonitrile] | 181 | – | –
32 | N#Cc1ccccc1CSc1nnc2c3ccccc3n(CC(=O)C3CC3)c2n1 [Example 39, 2′-((5-(2-Cyclopropyl-2-oxoethyl)-5H-[1,2,4]triazino[5,6-b]indol-3-ylthio)methyl)benzonitrile] | 549 | – | –
33 | Cc1ccccc1-c1cccc2[nH]c3nc(SCc4ccccc4C#N)nnc3c12 [Example 48, 2″-(((9-(o-Tolyl)-5H-[1,2,4]triazino[5,6-b]indol-3-yl)thio)methyl)benzonitrile] | 4300 | – | –
34 | O=[N+]([O-])c1ccc(CSc2nnc3c(n2)[nH]c2ccccc23)cc1 [Example 33, 3-((4′-Nitrobenzyl)thio)-5H-[1,2,4]triazino[5,6-b]indole] | 617 | – | –
35 | O=C(O)c1ccccc1CSc1nnc2c(n1)[nH]c1ccccc12 [Example 46, 2′-(((5H-[1,2,4]Triazino[5,6-b]indol-3-yl)thio)methyl)benzoic] | 2180 | – | –
